Data from PMC7031696 (Cell chemical biology, 2019).
Where two headings read alike, the source gives them in different places.

Experiments:
[1] = system: asynchronous 3D7-A10 parasite cultures; experiment: Standard 72-h exposure asexual blood stage susceptibility assay (IC50^72h); assay type: cell-based, Plasmodium falciparum; settings: Plasmodium falciparum, 3D7, 72 h, read-out: Overall (72hr assay) Mean IC50 (IC50^72h)
[2] = system: Plasmodium falciparum 3D7-A10 parasites; experiment: Stage specificity assay (8-h exposure of synchronized stages, IC50^8h); assay type: cell-based; settings: for IC50: Plasmodium falciparum
[3] = system: 3D7-MR4 trophozoite parasite-infected RBCs; experiment: Metabolomic profiling (hydrophilic metabolite changes, UHPLC-MS); assay type: cell-based, Plasmodium falciparum

## CC(C)C[C@@H](/C=C/S(C)(=O)=O)NC(=O)[C@H](CC(C)C)NC(=O)[C@H](Cc1c[nH]c2ccccc12)NC(=O)CN1CCOCC1 [WLL-vs, reference compound]
[1]
  IC50: 7.2 nM
[2]; 3D7, read-out: Early rings Mean IC50 (IC50^8h), 8-h exposure 0–8 hr, 3D7-A10, survival at 60 h
  IC50: 23.7 nM
[2]; 3D7, read-out: Early trophozoites Mean IC50 (IC50^8h), 8-h exposure 16–24 hr, 3D7-A10, survival at 60 h
  IC50: 57.6 nM
[2]; 3D7, read-out: Late rings Mean IC50 (IC50^8h), 8-h exposure 8–16 hr, 3D7-A10, survival at 60 h
  IC50: 29.4 nM
[2]; 3D7, read-out: Late trophozoites Mean IC50 (IC50^8h), 8-h exposure 24–32 hr, 3D7-A10, survival at 60 h
  IC50: 47.1 nM
[2]; 3D7, read-out: Schizonts Mean IC50 (IC50^8h), 8-h exposure 32–40 hr, 3D7-A10, survival at 60 h
  IC50: 50.1 nM
[2]; period when the parasite was most susceptible (lowest IC50^8h)
  Stage of peak activity (Figure 6): ring stages
[3]; 10 × IC50^72h, 2.5 hr, trophozoites
  changes within the set of metabolites detected (low fold change group): did not induce major changes
[3]; metabolite 3-phosphoglycerate, log2 fold change
  Log2(fold changes) 3-phosphoglycerate: -0.1339
[3]; metabolite 4-Pyridoxic acid, log2 fold change
  Log2(fold changes) 4-Pyridoxic acid: 0.0000
[3]; metabolite 4-aminobutyrate, log2 fold change
  Log2(fold changes) 4-aminobutyrate: -0.0215
[3]; metabolite 4-phosphopantetheine, log2 fold change
  Log2(fold changes) 4-phosphopantetheine: 0.0000
[3]; metabolite 4-phosphopantothenate, log2 fold change
  Log2(fold changes) 4-phosphopantothenate: -0.0913
[3]; metabolite 5-aminopentanoic acid, log2 fold change
  Log2(fold changes) 5-aminopentanoic acid: 0.0000
[3]; metabolite 5-methyl-THF, log2 fold change
  Log2(fold changes) 5-methyl-THF: 0.0000
[3]; metabolite 5-phosphoribosyl-1-pyrophosphate, log2 fold change
  Log2(fold changes) 5-phosphoribosyl-1-pyrophosphate: -0.1277
[3]; metabolite 6-phospho-D-gluconate, log2 fold change
  Log2(fold changes) 6-phospho-D-gluconate: -0.0373
[3]; metabolite HVDD
  Log2(fold change) HVDD: -0.5028
[3]; metabolite Hydroxyisocaproic acid
  Log2(fold change) Hydroxyisocaproic acid: 0.0000
[3]; metabolite IDP
  Log2(fold change) IDP: 0.0000
[3]; metabolite IMP
  Log2(fold change) IMP: 0.0400
[3]; metabolite Inositol
  Log2(fold change) Inositol: 0.0000
[3]; metabolite Isopentyl-PP
  Log2(fold change) Isopentyl-PP: 0.0000
[3]; metabolite L-arginino-succinate
  Log2(fold change) L-arginino-succinate: 0.0000
[3]; metabolite LD
  Log2(fold change) LD: 0.0000
[3]; metabolite Myristoyl/tetradecanoyl-CoA
  Log2(fold change) Myristoyl/tetradecanoyl-CoA: 0.0000
[3]; metabolite N-Acetyl-L-alanine
  Log2(fold change) N-Acetyl-L-alanine: -0.0632
[3]; metabolite N-acetyl-L-ornithine
  Log2(fold change) N-acetyl-L-ornithine: -0.0046
[3]; metabolite N-acetyl-glucosamine-1/6-phosphate
  Log2(fold change) N-acetyl-glucosamine-1/6-phosphate: -0.0854
[3]; metabolite N-acetyl-glutamate
  Log2(fold change) N-acetyl-glutamate: 0.1610
[3]; metabolite N-acetyl-glutamine
  Log2(fold change) N-acetyl-glutamine: 0.0000
[3]; metabolite N-carbamoyl-L-aspartate
  Log2(fold change) N-carbamoyl-L-aspartate: 0.1147
[3]; metabolite NAD+
  Log2(fold change) NAD+: 0.0000
[3]; metabolite NADH
  Log2(fold change) NADH: 0.3385
[3]; metabolite NADP+
  Log2(fold change) NADP+: -0.1225
[3]; metabolite NADPH
  Log2(fold change) NADPH: 0.0976
[3]; metabolite O-acetyl-L-serine
  Log2(fold change) O-acetyl-L-serine: 0.0000
[3]; metabolite Octoluse 8/1P
  Log2(fold change) Octoluse 8/1P: 0.0000
[3]; metabolite Octoluse Bisphosphate
  Log2(fold change) Octoluse Bisphosphate: -0.1506
[3]; metabolite PD
  Log2(fold change) PD: -0.2643
[3]; metabolite PE
  Log2(fold change) PE: -0.3236
[3]; metabolite PEE
  Log2(fold change) PEE: -0.1344
[3]; metabolite PEEK
  Log2(fold change) PEEK: 0.0000
[3]; metabolite PVNF
  Log2(fold change) PVNF: -0.5296
[3]; metabolite Pyroglutamic acid
  Log2(fold change) Pyroglutamic acid: 0.0000
[3]; metabolite Pyrophosphate
  Log2(fold change) Pyrophosphate: 0.0000
[3]; metabolite Ribose-5-phosphate
  Log2(fold change) Ribose-5-phosphate: -0.2996
[3]; metabolite S-adenosyl-L-homocysteine
  Log2(fold change) S-adenosyl-L-homocysteine: -0.2761
[3]; metabolite S-adenosyl-L-methioninamine
  Log2(fold change) S-adenosyl-L-methioninamine: 0.0000
[3]; metabolite S-adenosyl-L-methionine
  Log2(fold change) S-adenosyl-L-methionine: 0.0000
[3]; metabolite S-methyl-5'-thioadenosine
  Log2(fold change) S-methyl-5'-thioadenosine: 0.0000
[3]; metabolite SD
  Log2(fold change) SD: -0.1301
[3]; metabolite SDL
  Log2(fold change) SDL: 0.0000
[3]; metabolite SID
  Log2(fold change) SID: -0.3691
[3]; metabolite Sedoheptulose bisphosphate
  Log2(fold change) Sedoheptulose bisphosphate: -0.1909
[3]; metabolite Thiamine pyrophosphate
  Log2(fold change) Thiamine pyrophosphate: 0.0000
[3]; metabolite UDP-D-glucose, log2 fold change
  Log2(fold changes) UDP-D-glucose: -0.0066
[3]; metabolite UDP-D-glucuronate, log2 fold change
  Log2(fold changes) UDP-D-glucuronate: -0.1270
[3]; metabolite UDP-N-acetyl-glucosamine, log2 fold change
  Log2(fold changes) UDP-N-acetyl-glucosamine: -0.0647
[3]; metabolite UDP, log2 fold change
  Log2(fold changes) UDP: -0.3774
[3]; metabolite UMP, log2 fold change
  Log2(fold changes) UMP: 0.1341
[3]; metabolite UTP, log2 fold change
  Log2(fold changes) UTP: -0.1532
[3]; metabolite hydroxyphenylpyruvate
  Log2(fold change) hydroxyphenylpyruvate: 0.0000
[3]; metabolite hydroxyproline/Aminolevulinate
  Log2(fold change) hydroxyproline/Aminolevulinate: -0.0172
[3]; metabolite hypoxanthine
  Log2(fold change) hypoxanthine: 0.1957
[3]; metabolite indole
  Log2(fold change) indole: 0.0000
[3]; metabolite inosine
  Log2(fold change) inosine: 0.0926
[3]; metabolite isoleucine
  Log2(fold change) isoleucine: 0.0638
[3]; metabolite lactate
  Log2(fold change) lactate: -0.1762
[3]; metabolite leucine
  Log2(fold change) leucine: -0.0424
[3]; metabolite lysine
  Log2(fold change) lysine: 0.0000
[3]; metabolite malate
  Log2(fold change) malate: -0.1070
[3]; metabolite maleic acid
  Log2(fold change) maleic acid: -0.1330
[3]; metabolite methionine
  Log2(fold change) methionine: 0.1427
[3]; metabolite myo-inositol
  Log2(fold change) myo-inositol: 0.0000
[3]; metabolite nicotinamide mononucleotide
  Log2(fold change) nicotinamide mononucleotide: 0.0000
[3]; metabolite nicotinate
  Log2(fold change) nicotinate: 0.0441
[3]; metabolite ornithine
  Log2(fold change) ornithine: 0.0000
[3]; metabolite orotate
  Log2(fold change) orotate: -0.0939
[3]; metabolite orotidine-5'-phosphate
  Log2(fold change) orotidine-5'-phosphate: -0.0654
[3]; metabolite oxaloacetate
  Log2(fold change) oxaloacetate: 0.0000
[3]; metabolite p-aminobenzoate
  Log2(fold change) p-aminobenzoate: 0.0000
[3]; metabolite p-hydroxybenzoate
  Log2(fold change) p-hydroxybenzoate: 0.0000
[3]; metabolite pantothenate
  Log2(fold change) pantothenate: -0.2167
[3]; metabolite phenylalanine
  Log2(fold change) phenylalanine: 0.0156
[3]; metabolite phenylpyruvate
  Log2(fold change) phenylpyruvate: 0.0000
[3]; metabolite phosphoenolpyruvate
  Log2(fold change) phosphoenolpyruvate: -0.0337
[3]; metabolite prephenate
  Log2(fold change) prephenate: 0.0000
[3]; metabolite proline
  Log2(fold change) proline: -0.1122
[3]; metabolite pyridoxine
  Log2(fold change) pyridoxine: 0.0678
[3]; metabolite pyruvate
  Log2(fold change) pyruvate: -0.3415
[3]; metabolite riboflavin
  Log2(fold change) riboflavin: 0.0000
[3]; metabolite ribose
  Log2(fold change) ribose: 0.1290
[3]; metabolite ribose-phosphate
  Log2(fold change) ribose-phosphate: -0.4836
[3]; metabolite ribulose-5-phosphate
  Log2(fold change) ribulose-5-phosphate: -0.5090
[3]; metabolite serine
  Log2(fold change) serine: -0.0671
[3]; metabolite sn-glycerol-3-phosphate
  Log2(fold change) sn-glycerol-3-phosphate: -0.0482
[3]; metabolite succinate/Methylmalonic acid
  Log2(fold change) succinate/Methylmalonic acid: 0.1064
[3]; metabolite succinyl-CoA/methylmalonyl-CoA
  Log2(fold change) succinyl-CoA/methylmalonyl-CoA: -0.0054
[3]; metabolite taurine
  Log2(fold change) taurine: 0.0000
[3]; metabolite thiamine
  Log2(fold change) thiamine: 0.0000
[3]; metabolite threonine/homoserine
  Log2(fold change) threonine/homoserine: -0.1507
[3]; metabolite thymidine
  Log2(fold change) thymidine: 0.0000
[3]; metabolite thymine, log2 fold change
  Log2(fold changes) thymine: 0.0000
[3]; metabolite trehalose-6-Phosphate, log2 fold change
  Log2(fold changes) trehalose-6-Phosphate: 0.0000
[3]; metabolite tryptophan, log2 fold change
  Log2(fold changes) tryptophan: -0.0680
[3]; metabolite tyrosine, log2 fold change
  Log2(fold changes) tyrosine: -0.0190
[3]; metabolite uridine, log2 fold change
  Log2(fold changes) uridine: 0.0000
